Data reported in patent publication EP0454058B1, “Use of anthraquinone derivatives in the prophylaxis and treatment of viral diseases” (LOMAPHARM Rudolf Lohmann GmbH KG Pharmazeutische Fabrik, priority 1990, dated 1991).
Converted amounts (≈) assume the structure as drawn. Where two headings read alike, the source gives them in different places.

How the values were obtained:
Format in all cases: cell-based
Herpes simplex-Viren [1] = experiment: Plaque inhibition test (Plaquehemmungstest, agar diffusion test); conditions: read-out: Hemmhofdurchmesser (mm)
From the text: Der Plaquehemmungstest (Agardiffusionstest) wird nach der Methode von E. C. Herrmann et al., 1960 (6) durchgeführt. Auch bei diesem Test werden virusinfizierte tierische Zellkulturen verwendet. In diesem Fall wird in Petrischalen durch ein mit Hilfe von Agar verfestigtes Medium das unkontrollierte Ausbreiten der Viren verhindert. Es kommt zu einer lokal begrenzten Zerstörung der Zellen, die nach einer Färbung als Löcher im Zellrasen erkennbar ist. Die Testsubstanzen werden auf Filterpapierblättchen aufgetragen und auf das feste Medium aufgelegt. In einem Bereich um diese Blättchen werden durch die virustatische Wirkung der Testsubstanz die Zellen geschützt und es entstehen so kreisförmige Hemmzonen. Die Größe der Hemmzone kann als Maß für die virustatische Wirksamkeit ausgewertet werden.
Durchführung: Ein Monolayer von MK2-, HeLa-, Rita-Zellen oder einer anderen geeigneten Zellinie wird in einer Petrischale mit Viren infiziert, so daß eine große Zahl von einzelnen Plaques entsteht. Nach einer Bindung von 45 Minuten bei Zimmertemperatur wird der Zellrasen einmal mit phosphatgepufferter Kochsalzlösung gewaschen und mit einer Agar-Oberschicht versehen. Auf diese Agarschicht werden Filterpapierblättchen (10 mm Durchmesser) gelegt, die mit einer Lösung der Testsubstanz getränkt sind. Nach 48 bis 72 Stunden Bebrütung bei 37 °C in CO2-Atmosphäre (5 %) wird eine zweite Oberschicht darübergegeben, die den Vitalfarbstoff Tetrazoliumchlorid enthält. Nach weiteren 24 Stunden Bebrütung wird der Hemmhofdurchmesser, unterteilt in "toxische Zone" und "therapeutische Zone", in mm ausgemessen.

Cytomegalie-Viren = experiment: Plaque reduction test (Plaquereduktionstest) in human foreskin fibroblasts; conditions: Fibroblast, plaque count versus virus control, read-out: Hemmung (%)
From the text: Für die Prüfung der Wirksamkeit gegenüber Cytomegalie-Viren (CMV) werden mit diesen Viren infizierte menschliche Vorhautfibroblasten eingesetzt. Nach der Inkubation werden die entstandenen Plaques angefärbt und ausgezählt. Zur Auswertung wird die Plaquezahl unter dem Einfluß einer definierten Substanzmenge mit der Viruskontrolle verglichen.
Mit einer ähnlichen Versuchsanordnung wie im Plaquehemmungstest kann die Wirkung des Alizarins gegen Cytomegalie-Viren bestimmt werden (siehe Plaquereduktionstest, Methode 3). Die Untersuchung für das Cytomegalie-Virus in einer Zellinie von menschlichen Vorhautfibroblasten ergab die in Tabelle II angegebenen Werte für die Hemmung im Vergleich zur Viruskontrolle. Zur Auswertung wurden hier die gebildeten Plaques gezählt und im Vergleich zur Viruskontrolle ausgewertet (siehe Tabelle II). Tabelle II

[2] = system: HHV 6 (Human herpes-Virus Typ 6); experiment: Virus replication in human lymphocyte cultures, passages in presence of substance; conditions: 10 µg/ml, after three passages
From the text: In weiteren Versuchen wurde die Wirkung von Alizarin auf die Vermehrung von HHV 6 (Human herpes-Virus Typ 6) untersucht. Diese Viren lassen sich aus dem Blut von immunsupprimierten Patienten mit Leukämie, Lymphomen oder Aids sowie von Kindern mit Roseola infantum isolieren.
Die Testung erfolgte in menschlichen Lymphocytenkulturen.

Herpes simplex-Viren [3] = experiment: Dye test (Farbtest, crystal violet): virustatic effect in virus-infected cell cultures; conditions: for Extinktion bei 546 nm Hela-Zellen mit Herpes-Virus: virus control 0,144, cell control 0,648
From the text: (§1) Der Farbtest, wie von Armstrong, 1971 (5) beschrieben, beruht darauf, daß die durch die Viren zerstörten Zellen nicht mehr gefärbt werden können. Je höher der Anteil an intakten Zellen nach der Inkubation mit dem jeweiligen Virus durch die virustatische Wirkung einer Substanz ist, um so mehr Farbstoff wird gebunden. Der Farbstoff läßt sich aus den gefärbten Zellen extrahieren und seine Menge kann in einem Photometer, z. B. bei Verwendung von Kristallviolett bei 546 nm, gemessen werden. Damit erlaubt der Test meßbare und reproduzierbare Angaben sowohl über die virustatische, wie auch durch Parallelversuche mit Zellkulturen ohne Viren über die cytotoxische Wirkung von Substanzen.
(§2) Durchführung: 10 mg der Testsubstanz wurden in 10 ml Ethylalkohol gelöst. Unter Verwendung des Mediums für die Zellkultur wurde eine Verdünnungsreihe mit Konzentrationen von 1,56 µg/ml bis 25 µg/ml Testsubstanz eingestellt. Diese Lösungen werden auf 24 Stunden alte MK2-, HeLa-, Rita-Zellen oder andere geeignete Zellen gegeben, nachdem diese vorher 45 Minuten zur Infektion mit einer Suspension von Viren überschichtet worden waren. Zur Prüfung der Cytotoxizität werden Parallelansätze ohne Viruszugabe analog mit den verschiedenen Verdünnungsstufen der Prüfsubstanz überschichtet. Die Versuchsansätze mit Virus und Testsubstanz bzw. nur der Testsubstanz werden 72 Stunden bei 37 °C bebrütet. Anschließend werden die Zellen fixiert und für 15 Minuten mit Kristallviolettlösung gefärbt. Nach Spülen mit Wasser wird der an die Zellen gebundene Farbstoff mit Ethanol extrahiert und in einem Photometer die Extinktion bei 546 nm (Absorption für Kristallviolett) gemessen.
Zur Auswertung werden die Extinktionen und auch die Konzentration mit einem Zellschutz von 50 % berechnet.
Falls die Testsubstanz keine wesentlichen cytotoxischen Eigenschaft besitzt, kann die antivirale Schutzwirkung nach nach folgender Formel in Prozent berechnet werden: (E3 - E2)/(E1 - E2)x 100 [formula] E1 = Extinktion der Zellkontrolle E2 = Extinktion der Viruskontrolle E3 = Extinktion der Versuchsansätze mit Virus und Alizarin

Hela-Zellen = experiment: Dye test (Farbtest), parallel runs without virus: cytotoxicity; conditions: for Extinktion bei 546 nm Hela-Zellen: cells without virus, 72 h
From the text: as §1, §2

[4] = Substanzmenge 10 µg/ml pro Testblättchen, Rita-Zellen
[5] = Substanzmenge 20 µg/ml pro Testblättchen, Rita-Zellen
[6] = Substanzmenge 40 µg/ml pro Testblättchen, Rita-Zellen

## O=C1c2cccc(O)c2C(=O)c2c(O)cccc21 [Chrysazin (4), 1,8-Dihydroxyanthrachinon]
Herpes simplex-Viren [1]; [4]
  zone of inhibition at 10 µg/mL: 8 mm
Herpes simplex-Viren [1]; [5]
  zone of inhibition at 20 µg/mL: 12 mm
Herpes simplex-Viren [1]; [6]
  zone of inhibition at 40 µg/mL: 16 mm

## O=C1c2ccccc2C(=O)c2c1ccc(O)c2O [Alizarin, 1,2-Dihydroxy-9,10-anthracendion]
Cytomegalie-Viren; 5 µg/ml
  inhibition at 5 µg/mL: 10%
Cytomegalie-Viren; 10 µg/ml
  inhibition at 10 µg/mL: 60%
Cytomegalie-Viren; 15 µg/ml
  inhibition at 15 µg/mL: 100%
Cytomegalie-Viren; 20 µg/ml
  inhibition at 20 µg/mL: 100%
[2]
  Virus nachweisbar in den Zellen: kein Virus mehr nachweisbar
Herpes simplex-Viren [1]
  zone of inhibition at 10 µg/mL: 14 mm
  zone of inhibition at 20 µg/mL: 18 mm
  zone of inhibition at 40 µg/mL: 20 mm
Herpes simplex-Viren [3]; 25 µg/ml, 72 h
  Extinktion bei 546 nm Hela-Zellen mit Herpes-Virus: 0,235
Herpes simplex-Viren [3]; 3,125 µg/ml, 72 h
  Extinktion bei 546 nm Hela-Zellen mit Herpes-Virus: 0,329
Herpes simplex-Viren [3]; 1,56 µg/ml, 72 h
  Extinktion bei 546 nm Hela-Zellen mit Herpes-Virus: 0,206
Herpes simplex-Viren [3]; 6,25 µg/ml, 72 h
  Extinktion bei 546 nm Hela-Zellen mit Herpes-Virus: 0,403
Herpes simplex-Viren [3]; 12,5 µg/ml, 72 h
  Extinktion bei 546 nm Hela-Zellen mit Herpes-Virus: 0,338
Herpes simplex-Viren [3]; 72 h, 3.125 µg/mL, Hela-Zellkulturen, read-out: Zellschutz (%)
  inhibition at 3.125 µg/mL: 37%
Herpes simplex-Viren [3]; 72 h, 25 µg/ml, Hela-Zellkulturen, read-out: Zellschutz (%)
  inhibition at 25 µg/mL: 18%
Herpes simplex-Viren [3]; 72 h, 1,56 µg/ml, Hela-Zellkulturen, read-out: Zellschutz (%)
  inhibition at 1.56 µg/mL: 12%
Herpes simplex-Viren [3]; 72 h, 6,25 µg/ml, Hela-Zellkulturen, read-out: Zellschutz (%)
  inhibition at 6.25 µg/mL: 51%
Herpes simplex-Viren [3]; 72 h, 12,5 µg/ml, Hela-Zellkulturen, read-out: Zellschutz (%)
  inhibition at 12.5 µg/mL: 38%
Herpes simplex-Viren [3]; experiment of Tabelle I a, read-out: Konzentration, die einen Zellschutz von 50 % bewirkt
  EC50: 5.96 µg/mL (≈ 24.8 µM)
Herpes simplex-Viren [3]; in presence of 10 % Serum, read-out: 50 % Hemmwert
  IC50: 11.3 µg/mL
Herpes simplex-Viren [3]; mean of four experiments, read-out: Mittelwert für eine 50 %ige Hemmung der Virusvermehrung
  IC50: 4.87 µg/mL (≈ 20.3 µM)
Hela-Zellen; 25 µg/ml
  Extinktion bei 546 nm Hela-Zellen: 0,328
Hela-Zellen; 3,125 µg/ml
  Extinktion bei 546 nm Hela-Zellen: 0,693
Hela-Zellen; 1,56 µg/ml
  Extinktion bei 546 nm Hela-Zellen: 0,655
Hela-Zellen; 6,25 µg/ml
  Extinktion bei 546 nm Hela-Zellen: 0,634
Hela-Zellen; 12,5 µg/ml
  Extinktion bei 546 nm Hela-Zellen: 0,510
Hela-Zellen; at the higher concentrations of Tabelle I a / I b
  cytotoxische Wirkung: schwache cytotoxische Wirkung

## O=C1c2ccccc2C(=O)c2c1cc(S(=O)(=O)O)c(O)c2O [Alizarinsulfonsäure (2), 9,10-Dihydro-3,4-dihydroxy-9,10-dioxo-2-anthracensulfonsäure.Mononatriumsalz]
Herpes simplex-Viren [1]; [4]
  zone of inhibition at 10 µg/mL: 10 mm
Herpes simplex-Viren [1]; [5]
  zone of inhibition at 20 µg/mL: 12 mm
Herpes simplex-Viren [1]; [6]
  zone of inhibition at 40 µg/mL: 19 mm

## O=C1c2ccc(O)cc2C(=O)c2ccc(O)cc21 [Anthraflavinsäure (5), 2,6-Dihydroxyanthrachinon]
Herpes simplex-Viren [1]; [4]
  zone of inhibition at 10 µg/mL: 9 mm
Herpes simplex-Viren [1]; [5]
  zone of inhibition at 20 µg/mL: 13 mm
Herpes simplex-Viren [1]; [6]
  zone of inhibition at 40 µg/mL: 15 mm

## O=C1c2ccccc2C(=O)c2c(O)ccc(O)c21 [Chinizarin (3), 1,4-Dihydroxyanthrachinon]
Herpes simplex-Viren [1]; [4]
  zone of inhibition at 10 µg/mL: 11 mm
Herpes simplex-Viren [1]; [5]
  zone of inhibition at 20 µg/mL: 13 mm
Herpes simplex-Viren [1]; [6]
  zone of inhibition at 40 µg/mL: 16 mm
